The source of these data is patent US5633233A, “Modified kojibiosides analogues” (priority 1995, dated 1997).

SMILES strings stand for the structures. Like-named read-outs stand apart in the source and are kept apart here.

The subject of test [1] is α-glucosidase I from rat liver microsomes. As to conditions: cited from earlier work.
Test [2] has as its system α-glucosidase I from mung bean seedlings. Particulars: cited from earlier work.
The test system of test [3] is α-glucosidase I from yeast microsomal preparation. As to conditions: cited from earlier work.
Test [4] has as its system α-glucosidase I from bovine mammary gland. As to conditions: cited from earlier work.
The test system of a further test is α-glucosidase. As to conditions: cited from earlier work.
For a further test, the target named is T1, glucosidase I (Bos taurus, UniProt A0A3Q1M9D9).
T1 construct: Glucosidase I was solubilized from calf pancreas microsomes; from tissue; host or cells: calf pancreas microsomes
T1 sequence (A0A3Q1M9D9 1-839): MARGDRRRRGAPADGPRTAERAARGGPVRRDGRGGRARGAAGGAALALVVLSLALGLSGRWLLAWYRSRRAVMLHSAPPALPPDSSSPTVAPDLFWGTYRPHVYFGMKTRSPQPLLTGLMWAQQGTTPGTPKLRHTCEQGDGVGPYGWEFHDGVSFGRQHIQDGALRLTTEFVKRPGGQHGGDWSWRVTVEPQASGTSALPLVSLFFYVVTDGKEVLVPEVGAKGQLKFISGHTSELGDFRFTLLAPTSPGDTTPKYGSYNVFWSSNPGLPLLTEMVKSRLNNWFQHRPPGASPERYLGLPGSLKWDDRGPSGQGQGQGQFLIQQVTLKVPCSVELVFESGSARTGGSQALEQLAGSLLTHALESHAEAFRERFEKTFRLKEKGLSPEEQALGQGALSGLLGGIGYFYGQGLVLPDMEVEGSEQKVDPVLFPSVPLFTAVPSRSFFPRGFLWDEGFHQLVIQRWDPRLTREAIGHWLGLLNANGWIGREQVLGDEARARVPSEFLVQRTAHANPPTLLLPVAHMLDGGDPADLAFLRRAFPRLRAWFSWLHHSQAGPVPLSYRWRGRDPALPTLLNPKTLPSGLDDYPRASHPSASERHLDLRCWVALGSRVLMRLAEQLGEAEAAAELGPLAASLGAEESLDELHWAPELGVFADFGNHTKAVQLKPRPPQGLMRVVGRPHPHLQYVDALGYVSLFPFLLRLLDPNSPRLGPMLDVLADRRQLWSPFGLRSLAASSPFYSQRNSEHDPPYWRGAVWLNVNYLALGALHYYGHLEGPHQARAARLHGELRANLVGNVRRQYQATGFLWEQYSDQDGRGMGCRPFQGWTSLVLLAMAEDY
The experiment in a line: Assay for glucosidase I activity (14C-Glc3Man9GlcNAc2 substrate, ConA-Sepharose, scintillation counting). The class given is biochemical, calf. As to conditions: 1 mM concentration. As to the method: Some of the compounds described herein were evaluated as inhibitors of glucosidase I activity. Glucosidase I was purified by a literature procedure as follows. To prepare an affinity matrix, carboxypentyl-deoxynojirimycin was coupled with Affigel 102 according to Shailubhai et al^51. Glucosidase I was solubilized from calf pancreas microsomes, and purified from glucosidase II activity by affinity chromatography according to the same authors.
Substrates for Assay of Glucosidase I ^14 C-labelled Glc3 Man9 GlcNAc2 -PP-Dol was prepared by the incubation of UDP-[^14 C]Glc with calf pancreas microsomes as described by Herscovien et al^52. Glc3 Man9 GlcNAc2 was released by mild acid hydrolysis and purified by BioGel P4 chromatography.
Assay for Glucosidase I Activity
Affinity purified glucosidase I was assayed as described by Saunier et al.^53 by adsorption of undigested substrate […] to ConA-Sepharose and scintillation counting of [^14 C]Glc in the column eluent. Oligosaccharides as potential inhibitors were evaluated using castanospermine as a baseline inhibitor.

The mark [5] stands for this setting: affinity purified glucosidase I from calf pancreas microsomes, read-out: inhibition of glucosidase I activity.

As to `OC[C@H]1O[C@H](O[C@H]2C(O)O[C@H](CO)[C@@H](O)[C@@H]2O)[C@H](O)[C@@H](O)[C@@H]1O` (stereo partly drawn) [Kojibiose], the “inhibition of α-glucosidase I” value in test [1], in test [2], in test [3] and in test [4] was “inhibited” in each case.
As for `C[C@H]1O[C@H](O[C@H]2[C@H](O)[C@@H](O)[C@@H](O[C@H]3[C@H](O)[C@@H](O)C(O)O[C@@H]3CO)O[C@@H]2CO)[C@H](O)[C@@H](O)[C@@H]1N[C@H]1C=C(CO)[C@@H](O)[C@H](O)[C@H]1O` (stereo partly drawn) [acarbose], the α-glucosidase inhibition result in the test with α-glucosidase is “potent”.
For `COC(=O)CCCCCCCCO[C@H]1O[C@H](CO)[C@@H](O)[C@H](O)[C@H]1O[C@H]1O[C@H](CO)[C@@H](O)[C@H](O)[C@H]1O` [compound 44, 8-Methoxycarbonyloctyl 2-O-(α-D-glucopyranosyl)-α-D-glucopyranoside], on glucosidase I (setting [5]), the inhibition at 1000 µM came out at 20%.
For the molecule `COC(=O)CCCCCCCCO[C@H]1O[C@H](CN)[C@@H](O)[C@H](O)[C@H]1O[C@H]1O[C@H](CO)[C@@H](O)[C@H](O)[C@H]1O` [compound 57, 8-Methoxycarbonyloctyl 6-amino-6-deoxy-2-O-(α-D-glucopyranosyl)-α-D-glucopyranoside], the inhibition at 1000 µM is 70% at glucosidase I (versus known compound 44, read-out: increase in inhibition activity relative to compound 44) and 34% on glucosidase I (setting [5]).
On to `C[C@H]1O[C@H](O[C@H]2[C@H](O)[C@@H](O)[C@@H](O[C@H]3[C@H](O)[C@@H](O)[C@@H](O)O[C@@H]3CO)O[C@@H]2CO)[C@H](O)[C@@H](O)[C@@H]1N[C@H]1C[C@H](CO)[C@@H](O)[C@H](O)[C@H]1O` [dihydroacarbose], for which, in the test with α-glucosidase, the α-glucosidase inhibition result is listed as “potent”.
